Test results as given in ChEMBL document CHEMBL1201862, “PubChem BioAssay data set” (2004).
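Values below derive from 48-hour exposures of cells grown in 96-well plates, with endpoints linearly interpolated between the two concentrations bracketing the appropriate inhibition level. GI50 = concentration required for 50% inhibition of growth.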 Activity calls are given as the source filed them. Cut-off read from the data, not from the text of the source: active = GI50 up to about 1.1 µM and inactive = higher.

What was measured:
Assay in all cases: inhibition of tumour cell growth, NCI panel, 48 h
ACHN = test system: ACHN
HCT-116 = test system: HCT-116
HOP-62 = test system: HOP-62
HOP-92 = test system: HOP-92
KM12 = test system: KM12
LOX IMVI = test system: LOX IMVI
MDA-N = test system: MDA-N
MOLT-4 = test system: MOLT-4
Malme-3M = test system: Malme-3M
NCI-H23 = test system: NCI-H23
NCI-H522 = test system: NCI-H522
NCI/ADR-RES = test system: NCI/ADR-RES
PC-3 = test system: PC-3
RXF 393 = test system: RXF 393
SK-MEL-5 = test system: SK-MEL-5
SN12C = test system: SN12C
U-251 = test system: U-251
UACC-257 = test system: UACC-257
UACC-62 = test system: UACC-62

SMILES | GI50 (ACHN) | GI50 (HCT-116) | GI50 (HOP-62) | GI50 (HOP-92) | GI50 (KM12) | GI50 (LOX IMVI) | GI50 (MDA-N) | GI50 (MOLT-4) | GI50 (Malme-3M) | GI50 (NCI-H23) | GI50 (NCI-H522) | GI50 (NCI/ADR-RES) | GI50 (PC-3) | GI50 (RXF 393) | GI50 (SK-MEL-5) | GI50 (SN12C) | GI50 (U-251) | GI50 (UACC-257) | GI50 (UACC-62)
CC1OC(Oc2c(-c3cc(O)c(O)c(O)c3)oc3cc(O)cc(O)c3c2=O)C(O)C(O)C1O (stereo unspecified) | > 100 µM (inactive) | > 100 µM (inactive) | > 100 µM (inactive) | > 100 µM (inactive) | > 100 µM (inactive) | > 100 µM (inactive) | 31 µM (inactive) | > 100 µM (inactive) | > 100 µM (inactive) | > 100 µM (inactive) | > 100 µM (inactive) | > 100 µM (inactive) | > 100 µM (inactive) | > 100 µM (inactive) | > 100 µM (inactive) | > 100 µM (inactive) | > 100 µM (inactive) | > 100 µM (inactive) | > 100 µM (inactive)
CN(CC(=O)O)Cc1oc(CO)cc(=O)c1O | > 100 µM (inactive) | > 100 µM (inactive) | > 100 µM (inactive) | > 100 µM (inactive) | > 100 µM (inactive) | > 100 µM (inactive) | > 100 µM (inactive) | > 100 µM (inactive) | > 100 µM (inactive) | > 100 µM (inactive) | > 100 µM (inactive) | > 100 µM (inactive) | > 100 µM (inactive) | > 100 µM (inactive) | > 100 µM (inactive) | > 100 µM (inactive) | > 100 µM (inactive) | > 100 µM (inactive) | > 100 µM (inactive)
CC1=NN(C(=O)CC(=O)Nc2ccccc2Cl)C(=O)C1/N=N\c1ccc(S(=O)(=O)c2ccc(/N=N/C3C(=O)N(C(=O)CC(=O)Nc4ccccc4Cl)N=C3C)cc2)cc1 (stereo unspecified) | > 100 µM (inactive) | > 100 µM (inactive) | > 100 µM (inactive) | > 100 µM (inactive) | > 100 µM (inactive) | 54.1 µM (inactive) | > 100 µM (inactive) | > 100 µM (inactive) | > 100 µM (inactive) | > 100 µM (inactive) | > 100 µM (inactive) | > 100 µM (inactive) | > 100 µM (inactive) | > 100 µM (inactive) | > 100 µM (inactive) | > 100 µM (inactive) | > 100 µM (inactive) | > 100 µM (inactive) | > 100 µM (inactive)
CC(=O)Oc1c(OC(C)C)cc(=O)n2ccsc12 | > 100 µM (inactive) | > 100 µM (inactive) | > 100 µM (inactive) | > 100 µM (inactive) | > 100 µM (inactive) | > 100 µM (inactive) | > 100 µM (inactive) | 43.9 µM (inactive) | > 100 µM (inactive) | > 100 µM (inactive) | 42.2 µM (inactive) | > 100 µM (inactive) | > 100 µM (inactive) | > 100 µM (inactive) | 62.8 µM (inactive) | > 100 µM (inactive) | > 100 µM (inactive) | > 100 µM (inactive) | > 100 µM (inactive)
COC(=O)c1ccccc1CC1Cc2ccc3c(c2C1=O)CCC3 (stereo unspecified) | 41.5 µM (inactive) | 37.1 µM (inactive) | > 100 µM (inactive) | 22.4 µM (inactive) | 64.9 µM (inactive) | 29.5 µM (inactive) | 33.5 µM (inactive) | 25.1 µM (inactive) | 28.8 µM (inactive) | 39.6 µM (inactive) | 22.1 µM (inactive) | 28.8 µM (inactive) | 22.5 µM (inactive) | 35.4 µM (inactive) | 23 µM (inactive) | > 100 µM (inactive) | 51.1 µM (inactive) | 32.4 µM (inactive) | 39.5 µM (inactive)
N#CCc1nc(Cc2ccccc2)n[nH]1 | > 100 µM (inactive) | > 100 µM (inactive) | > 100 µM (inactive) | > 100 µM (inactive) | > 100 µM (inactive) | > 100 µM (inactive) | > 100 µM (inactive) | > 100 µM (inactive) | > 100 µM (inactive) | > 100 µM (inactive) | > 100 µM (inactive) | > 100 µM (inactive) | > 100 µM (inactive) | > 100 µM (inactive) | > 100 µM (inactive) | > 100 µM (inactive) | > 100 µM (inactive) | > 100 µM (inactive) | > 100 µM (inactive)
OC/C=C/[C@H](OCc1ccccc1)[C@H](/C=C/CO)OCc1ccccc1 | 49.3 µM (inactive) | 35.1 µM (inactive) | 49.7 µM (inactive) | 45.4 µM (inactive) | 41.8 µM (inactive) | 20.4 µM (inactive) | 36 µM (inactive) | 13.7 µM (inactive) | > 100 µM (inactive) | 47.8 µM (inactive) | 37.3 µM (inactive) | 32.4 µM (inactive) | 32.3 µM (inactive) | 9.06 µM (inactive) | 27.9 µM (inactive) | 47.8 µM (inactive) | 24.5 µM (inactive) | 75.2 µM (inactive) | 80 µM (inactive)
CC(=O)OCC1OC(N2C(C)=C(C(C)=O)C(c3ccc(Cl)cc3)C(C#N)=C2S)C(OC(C)=O)C(OC(C)=O)C1OC(C)=O (stereo unspecified) | 77.8 µM (inactive) | 36.7 µM (inactive) | > 100 µM (inactive) | 33.6 µM (inactive) | 79.8 µM (inactive) | 76.2 µM (inactive) | 42.5 µM (inactive) | 18.6 µM (inactive) | 48.4 µM (inactive) | > 10 µM (inactive) | 32.4 µM (inactive) | 8.71 µM (inactive) | 36 µM (inactive) | 52.8 µM (inactive) | 32.3 µM (inactive) | 85.9 µM (inactive) | 66.5 µM (inactive) | 48.8 µM (inactive) | 19.9 µM (inactive)
O=C1c2ccc3cc(CCl)cc(O)c3c2C(=O)c2cccc(O)c21 | 2.91 µM (inactive) | 1.1 µM (active) | 3.38 µM (inactive) | 4.58 µM (inactive) | 4.79 µM (inactive) | 2.96 µM (inactive) | 0.169 µM (active) | 1.37 µM (inactive) | 0.0151 µM (active) | 3.12 µM (inactive) | 3.28 µM (inactive) | 2.02 µM (inactive) | 1.81 µM (inactive) | 2.55 µM (inactive) | 0.604 µM (active) | 1.5 µM (inactive) | 2.72 µM (inactive) | 1.17 µM (inactive) | 1.22 µM (inactive)
CC1CN1C(=O)NCCCCCCNC(=O)N1CC1C (stereo unspecified) | 9.53 µM (inactive) | 81.3 µM (inactive) | 30.2 µM (inactive) | > 93.5 µM (inactive) | > 100 µM (inactive) | 34.3 µM (inactive) | > 100 µM (inactive) | 15.5 µM (inactive) | > 100 µM (inactive) | 27.3 µM (inactive) | > 100 µM (inactive) | 78.7 µM (inactive) | > 100 µM (inactive) | > 100 µM (inactive) | > 100 µM (inactive) | 61.8 µM (inactive) | 65.3 µM (inactive) | > 100 µM (inactive) | 31.8 µM (inactive)
O=C1C=CC[C@H](/C=C/C[C@@H](O)C[C@H](O)/C=C/c2ccccc2)O1 | 14.6 µM (inactive) | 5.09 µM (inactive) | 16.5 µM (inactive) | 2.56 µM (inactive) | 12.3 µM (inactive) | 2.92 µM (inactive) | 12.4 µM (inactive) | 14 µM (inactive) | 14.9 µM (inactive) | 11.3 µM (inactive) | 4.25 µM (inactive) | 19.1 µM (inactive) | 14.5 µM (inactive) | 6.89 µM (inactive) | 13.7 µM (inactive) | 13.8 µM (inactive) | 11.9 µM (inactive) | 13.9 µM (inactive) | 15 µM (inactive)
OCCNCNc1nc(NCNCCO)nc(N(CNCCO)CNCCO)n1 | 27 µM (inactive) | 18.7 µM (inactive) | 19.5 µM (inactive) | 21.9 µM (inactive) | 39.4 µM (inactive) | 17 µM (inactive) | 19.2 µM (inactive) | 23.2 µM (inactive) | 18.5 µM (inactive) | 21.2 µM (inactive) | 21.3 µM (inactive) | 24.4 µM (inactive) | 22.3 µM (inactive) | 15 µM (inactive) | 15.1 µM (inactive) | 22.3 µM (inactive) | 21.1 µM (inactive) | 18.2 µM (inactive) | 18.8 µM (inactive)
CC(C)OP(=O)(CCCCCCCCC/C=C/c1ccc2c(c1)OCCOCCOCCOCCO2)OC(C)C | 3.48 µM (inactive) | 3.38 µM (inactive) | 2.42 µM (inactive) | 2.2 µM (inactive) | 2.8 µM (inactive) | 2.16 µM (inactive) | 3.4 µM (inactive) | 3.04 µM (inactive) | 3.73 µM (inactive) | 2.85 µM (inactive) | 2.76 µM (inactive) | 2.98 µM (inactive) | 2.84 µM (inactive) | 2.7 µM (inactive) | 2.74 µM (inactive) | 3.36 µM (inactive) | 2.75 µM (inactive) | 2.88 µM (inactive) | 3.79 µM (inactive)
COc1ccc2c3c([nH]c2c1)[C@H]1C[C@H]2[C@H](C[C@@H](O)[C@H](OC)[C@H]2C(=O)O)CN1CC3 | > 100 µM (inactive) | > 100 µM (inactive) | > 100 µM (inactive) | > 100 µM (inactive) | > 100 µM (inactive) | > 100 µM (inactive) | > 100 µM (inactive) | > 100 µM (inactive) | > 100 µM (inactive) | > 100 µM (inactive) | > 100 µM (inactive) | > 100 µM (inactive) | > 100 µM (inactive) | > 100 µM (inactive) | > 100 µM (inactive) | > 100 µM (inactive) | > 100 µM (inactive) | > 100 µM (inactive) | > 100 µM (inactive)
